Data from patent US9556169B2, “Compounds and compositions for the treatment of parasitic diseases” (NOVARTIS AG, priority 2012, dated 2017).
Like-named read-outs stand apart in the source and are kept apart here.

Key:
[1] = tested on: P. falciparum (NF54 or 3D7 strain); assay: P. falciparum proliferation assay in infected human blood cells (SYBR Green); assay type: cell-based; settings: Plasmodium falciparum, Erythrocyte, read-out: EC50 (nM), inhibitory efficacy in delaying P. falciparum proliferation in infected human blood cells
Experimental: Assay for P. falciparum Proliferation in Infected Human Blood Cells
Compounds of the invention can be assayed to measure their capacity to inhibit proliferation of P. falciparum parasitemia in infected red blood cells. This parasite proliferation assay measures the increase in parasite DNA content using a DNA intercalating dye, SYBR Green® (INVITROGEN®) which has a high affinity for double stranded DNA.
NF54 or 3D7 P. falciparum strain is grown in complete culturing media until parasitemia reaches 3% to 8% with O+ human erythrocytes. […] 20 μl of screening media is dispensed into 384 well assay plates. 50 nl of compounds of the invention (in DMSO), including antimalarial controls (mefloquine, pyrimethamine and artemisinin), are then transferred into the assay plates, as well as DMSO alone to serve as a negative control for inhibition. Then 30 μl of a suspension of a NF54 or 3D7 P. falciparum infected erythrocytes in screening media is dispensed into the assay plates such that the final hematocrit is 2.5% with a final parasitemia of 0.3%. The plates are placed in a 37° C. incubator for 72 hours in a low oxygen environment containing 93% N2, 4% CO2, and 3% O2 gas mixture. 10 μl of lysis buffer (saponin, triton-X, EDTA) containing a 10× solution of SYBR Green I® in RPMI media is dispensed into the plates. The plates are lidded and kept at room temperature overnight for the lysis of the infected red blood cells. The fluorescence intensity is measured (excitation 425 nm, emission 530 nm) using the Envision™ system (Perkin Elmer). The percentage inhibition of 50%, EC50, is calculated for each compound.

[2] = tested on: Plasmodium berghei line expressing luciferase (Pb-luc) sporozoites; assay: Liver stage P. berghei luciferase proliferation assay in CD81-GFP-HepG2 cells; assay type: cell-based
Experimental: Liver Stage P. berghei Luciferase Proliferation Assay
CD81-GFP-HepG2 cells (obtained from the lab of Dominique Mazier) were seeded into GNF custom Greiner plates (1536-well, white, TC-treated, solid bottom). A final density of 3000 cells/well was achieved by dispensing 5 ul per well of a 600,000 cells/mL resuspended in Assay Media (AM; phenol-red free DMEM, 2% FBS, 5×PSG) via a MicroFlo (Biotek; 5 ul dispense cassette). The seeded assay plates were incubated overnight at 37° C. in an incubator with 5% CO2. The following day, a 10 nL volume of compound was transferred acoustically (ECHO 525, Labcyte Inc.) to each well in the assay plate. Sporozoite forms of a Plasmodium berghei line expressing luciferase (Pb-luc) were dissected and purified from infected Anopheles stephensi mosquitoes (provided by the NYU insectary) as previously described by Meister et al. (Science, 2011). Purified sporozoites (spz) were stored at 250 spz/uL in chilled PBS supplemented with 3% BSA. 3 uL of Pb-luc spz solution was dispensed to each assay well using a Bottlevalve equipped with a custom, single-tip dispense head (GNF Systems). Assay plates were centrifuged at 330×g for 3 minutes to pellet the spz, then the assay plates were returned to the 37° C. incubator for 48 h. Luciferase signal, which corresponds with parasite proliferation, was detected by adding 2 uL of BrightGlo (Promega) to each well using the MicroFlo (Biotek; 1 ul cassette). Luminescence was immediately measured on an Envision MultiLabel Plate Reader (PerkinElmer).

[3] = values marked * in Table 2, CD81-GFP-HepG2 cells, 48 h, luminescence, read-out: EC50 (nM), P. berghei luciferase Proliferation Assay
[4] = infected human erythrocytes, 72 hours, SYBR Green fluorescence
[5] = read-out: EC50, P. berghei luciferase Proliferation Assay

SMILES	EC50 ([1]; 72 h)	EC50 [2, 3]	EC50 [1, 4]	EC50 [2, 5]
CNC(=O)c1ccc(-c2cnn3ccc(C(=O)N(c4ccc(C#N)cc4)C4CC4)cc23)nc1 [Example 141, N-(4-Cyanophenyl)-N-cyclopropyl-3-(5-(methylcarbamoyl)pyridin-2-yl)pyrazolo[1,5-a]pyridine-5-carboxamide]	65 nM	17 nM	–	–
CNC(=O)c1ccc(-c2cnn3ccc(C(=O)N(c4ccc(C(F)(F)F)cn4)C(C)C)cc23)cc1 [Example 153, N-Isopropyl-3-(4-(methylcarbamoyl)phenyl)-N-(5-(trifluoromethyl)pyridin-2-yl)pyrazolo[1,5-a]pyridine-5-carboxamide]	–	16 nM	88 nM	–
CCN(C(=O)c1ccn2ncc(-c3ccc(C(=O)NC)cc3)c2c1)c1ccc(C(F)(F)F)cn1 [Example 96, N-ethyl-3-(4-(methylcarbamoyl)phenyl)-N-(5-(trifluoromethyl)pyridin-2-yl)pyrazolo[1,5-a]pyridine-5-carboxamide]	–	4 nM	12 nM	≤ 20 nM
CNC(=O)c1ccc(-c2cnn3ccc(C(=O)N(c4ccc(C#N)cc4)C(C)C)cc23)cn1 [Example 146, N-(4-Cyanophenyl)-N-isopropyl-3-(6-(methylcarbamoyl)pyridin-3-yl)pyrazolo[1,5-a]pyridine-5-carboxamide]	–	20 nM	45 nM	–
CNC(=O)c1ccc(-c2cnn3ccc(C(=O)N(c4ccc(C#N)cn4)C(C)C)cc23)nc1 [Example 154, N-(5-cyanopyridin-2-yl)-N-isopropyl-3-(5-(methylcarbamoyl)pyridin-2-yl)pyrazolo[1,5-a]pyridine-5-carboxamide]	200 nM	36 nM	–	–
CNC(=O)c1ccc(-c2cnn3ccc(C(=O)N(c4ccc(C#N)cn4)C(C)C)cc23)cn1 [Example 148, N-(5-Cyanopyridin-2-yl)-N-isopropyl-3-(6-(methylcarbamoyl)pyridin-3-yl)pyrazolo[1,5-a]pyridine-5-carboxamide]	–	18 nM	67 nM	–
CNC(=O)c1ccc(-c2cnn3ccc(C(=O)N(c4ccc(Cl)cc4)C4CC4)cc23)cn1 [Example 143, N-(4-Chlorophenyl)-N-cyclopropyl-3-(6-(methylcarbamoyl)pyridin-3-yl)pyrazolo[1,5-a]pyridine-5-carboxamide]	–	7 nM	12 nM	–
CNC(=O)c1ccc(-c2cnn3ccc(N(C)C(=O)c4ccc(C#N)cn4)cc23)cc1 [Example 94, 5-cyano-N-methyl-N-(3-(4-(methylcarbamoyl)phenyl)pyrazolo[1,5-a]pyridin-5-yl)picolinamide]	–	13 nM	17 nM	≤ 20 nM
CCN(C(=O)c1ccn2ncc(-c3ccc(C(=O)NC)cc3)c2c1)c1ccc(C#N)c(OCCO)n1 [Example 162, N-(5-cyano-6-(2-hydroxyethoxyl)pyridin-2-yl)-N-ethyl-3-(4-(methylcarbamoyl)phenyl)pyrazolo[1,5-a]pyridine-5-carboxamide]	–	8 nM	9 nM	–
CCN(C(=O)c1ccn2ncc(-c3ccc(C(=O)NC)nc3)c2c1)c1ccc(C(F)(F)F)cn1 [Example 157, N-ethyl-3-(6-(methylcarbamoyl)pyridin-3-yl)-N-(5-(trifluoromethyl)pyridin-2-yl)pyrazolo[1,5-a]pyridine-5-carboxamide]	–	60 nM	91 nM	–
CNC(=O)c1ccc(-c2cnn3ccc(C(=O)N(c4ccc(C(F)(F)F)cn4)C4CCC4)cc23)cn1 [Example 161, N N-cyclobutyl-3-(6-(methylcarbamoyl)pyridin-3-yl)-N-(5-(trifluoromethyl)pyridin-2-yl)pyrazolo[1,5-a]pyridine-5-carboxamide]	–	41 nM	68 nM	–
CNC(=O)c1ccc(-c2cnn3ccc(N(C(=O)c4ccc(C#N)cn4)C4CC4)cc23)cc1 [Example 147, 5-Cyano-N-cyclopropyl-N-(3-(4-(methylcarbamoyl)phenyl)pyrazolo[1,5-a]pyridin-5-yl) picolinamide]	–	151 nM	814 nM	–
CNC(=O)c1ccc(-c2cnn3ccc(C(=O)N(NC)c4ccc(C#N)cc4)cc23)cn1 [Example 92, 5-(5-(1-(4-cyanophenyl)-2-methylhydrazinecarbonyl)pyrazolo[1,5-a]pyridin-3-yl)-N-methyl picolinamide]	–	15 nM	24 nM	≤ 20 nM
CNC(=O)c1ccc(-c2cnn3ccc(S(=O)(=O)N(C)c4ccc(C#N)cn4)cc23)cc1 [Example 163, 4-(5-(N-(5-Cyanopyridin-2-yl)-N-methylsulfamoyl)pyrazolo[1,5-a]pyridin-3-yl)-N-methyl benzamide]	–	2 nM	4 nM	–
CNC(=O)c1ccc(-c2cnn3ccc(C(=O)N(c4ccc(C#N)cn4)C4CCC4)cc23)cn1 [Example 144, N-(5-Cyanopyridin-2-yl)-N-cyclobutyl-3-(6-(methylcarbamoyl)pyridin-3-yl)pyrazolo[1,5-a]pyridine-5-carboxamide]	–	22 nM	27 nM	–
CNC(=O)c1ccc(-c2cnn3ccc(C(=O)N(c4ccc(C#N)cc4)C4CC4)cc23)cn1 [Example 137, N-(4-Cyanophenyl)-N-cyclopropyl-3-(6-(methylcarbamoyl)pyridin-3-yl)pyrazolo[1,5-a]pyridine-5-carboxamide]	–	10 nM	12 nM	–
CCN(C(=O)c1ccn2ncc(-c3ccc(C(=O)NC)cc3)c2c1)c1ccc(F)cn1 [Example 95, N-ethyl-N-(5-fluoropyridin-2-yl)-3-(4-(methylcarbamoyl)phenyl)pyrazolo[1,5-a]pyridine-5-carboxamide]	–	5 nM	23 nM	≤ 20 nM
